Format in all cases: cell-based
The subject of test [1] is HLA-G on the plasma membrane of the human ovarian cancer cell line SKOV3. Put plainly: HLA-G expression level of tumor cells by flow cytometry. Conditions: 20 μM, 48 hours, compared to untreated control, p<0.001.
Test [2] deals with human ovarian cancer cell line SKOV3. The experiment in a line: tumor cell death (cytotoxicity), Annexin V-FITC/PI flow cytometry. The note with it: treated alone; carboplatin 20 μM or 1×10^5 parental cells. As to the method:
(§1) The cells are subsequently incubated for 24 hours. Each type of the tumor cells is divided into six groups. In a control, the tumor cells are untreated. In a group 1, the tumor cells are treated with the chemotherapy drug. In a group 2, the tumor cells are treated with the parental primary NK cell. In a group 3, the tumor cells are treated with the parental primary NK cell and the chemotherapy drug. In the groups 2 and 3, the number of the parental primary NK cell treated is 1×10^5 cells. In a group 4, the tumor cells are treated with the Example 1. In a group 5, the tumor cells are treated with the Example 1 and the chemotherapy drug. […] The treated cells are stained with Annexin V-FITC and propidium iodide (PI), and the apoptosis and the death of the tumor cells are detected by the flow cytometry. The sum of the percentage of cells stained with Annexin V-FITC and/or PI (that is the percentage of cells in the first quadrant, the second quadrant, and the fourth quadrant of the bivariate flow cytometry scatter plot) are calculated to obtain the cytotoxicity. The results of the cytotoxicity are counted after the three independent trials in each group.
(§2) The cells are subsequently incubated for 24 hours. […] The treated cells are stained with Annexin V-FITC and propidium iodide (PI), and the apoptosis and the death of the tumor cells are detected by the flow cytometry. […]

The subject of test [3] is HLA-G on the plasma membrane of the human breast cancer cell line MDA-MB-231. The experiment in a line: HLA-G expression level of tumor cells by flow cytometry. Conditions: 200 nM, 48 hours, compared to untreated control, p<0.001. As to the method:
First, the human breast cancer cell line MDA-MB-231, the human malignant brain tumor cell line DBTRG, the human pancreatic cancer cell line AsPC1 and the human ovarian cancer cell line SKOV3 are seeded in a 6-well plate at a density of 2×10^5 cells/well. The cells are subsequently incubated for 24 hours. Each type of the tumor cells is divided into two groups. In a control, the tumor cells are untreated. In an experiment group, the tumor cells are treated with the chemotherapy drug for 48 hours. […] Then, the HLA-G expression level of the tumor cells are detected by flow cytometry.

For test [4], the system named is human breast cancer cell line MDA-MB-231. The experiment in a line: tumor cell death (cytotoxicity), Annexin V-FITC/PI flow cytometry. The note with it: treated alone; doxorubicin 200 nM or 1×10^5 parental cells. As to the method:
(§3) The cells are subsequently incubated for 24 hours. […] In a control, the tumor cells are untreated.
as §3

The test system of test [5] is human pancreatic cancer cell line AsPC1. The description is as above. Conditions: treated alone; gemcitabine 20 μM or 1×10^5 parental cells. The procedure: as §1, §2

Molecules are shown by their SMILES.

Consider `N.N.O=C([O-])C1(C(=O)[O-])CCC1.[Pt+2]` [carboplatin], for which the “expression of HLA-G on the plasma membrane of SKOV3” value in test [1] is given as “increase the expression of HLA-G”. In addition, the “death rate of SKOV3 compared to the control (in words)” value in test [2] is given as “increased, but there is no statistically significant differences compared to the control”.
Take `COc1cccc2c1C(=O)c1c(O)c3c(c(O)c1C2=O)C[C@@](O)(C(=O)CO)C[C@@H]3O[C@H]1C[C@H](N)[C@H](O)[C@H](C)O1` [doxorubicin]: the “expression of HLA-G on the plasma membrane of MDA-MB-231” value in test [3] is reported as “increase the expression of HLA-G”. In addition, the “death rate of MDA-MB-231 compared to the control (in words)” value in test [4] is reported as “increased, but there is no statistically significant difference compared to the control”.
As to `Nc1ccn([C@@H]2O[C@H](CO)[C@@H](O)C2(F)F)c(=O)n1` [gemcitabine], the “death rate of AsPC1 compared to the control (in words)” value in test [5] is “increased, but there is no statistically significant difference compared to the control”.

The values above are taken from patent publication US11479611B2 (China Medical University Hospital, priority 2019, dated 2022).
